Measured values from PubChem BioAssay (NCI).
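Dose response: 5 concentrations. Exposure: 48 h. Format: 96-well plates. Endpoint: linear interpolation; highest concentration if not reached. At the GI50, growth is halved. TGI denotes the concentration required for complete inhibition of growth.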

Assays:
Test in all cases: NCI-60 cell line screen, 48 h
[1] = tested on: 786-0 renal
[2] = tested on: A498 renal
[3] = tested on: A549 NSCLC
[4] = tested on: ACHN renal
[5] = tested on: BT-549 breast
[6] = tested on: CAKI-1 renal
[7] = tested on: CCRF-CEM leukemia
[8] = tested on: COLO 205 colon
[9] = tested on: DU-145 prostate
[10] = tested on: EKVX NSCLC
[11] = tested on: HCC-2998 colon
[12] = tested on: HCT-116 colon
[13] = tested on: HCT-15 colon
[14] = tested on: HOP-62 NSCLC
[15] = tested on: HOP-92 NSCLC
[16] = tested on: HS 578T breast
[17] = tested on: HT29 colon
[18] = tested on: IGROV1 ovarian
[19] = tested on: K-562 leukemia
[20] = tested on: KM12 colon
[21] = tested on: LOX IMVI melanoma
[22] = tested on: M14 melanoma
[23] = tested on: MALME-3M melanoma
[24] = tested on: MCF7 breast
[25] = tested on: MDA-MB-231 breast
[26] = tested on: MDA-MB-435
[27] = tested on: MOLT-4 leukemia
[28] = tested on: NCI-H226 lung
[29] = tested on: NCI-H460 lung
[30] = tested on: NCI-H522 lung
[31] = tested on: NCI/ADR-RES ovarian
[32] = tested on: OVCAR-3 ovarian
[33] = tested on: OVCAR-4 ovarian
[34] = tested on: OVCAR-5 ovarian
[35] = tested on: OVCAR-8 ovarian
[36] = tested on: PC-3 prostate
[37] = tested on: RPMI-8226 leukemia
[38] = tested on: RXF 393 renal
[39] = tested on: SF-268 CNS
[40] = tested on: SF-295 CNS
[41] = tested on: SF-539 CNS
[42] = tested on: SK-MEL-28 melanoma
[43] = tested on: SK-MEL-5 melanoma
[44] = tested on: SK-OV-3 ovarian
[45] = tested on: SN12C renal
[46] = tested on: SNB-19 CNS
[47] = tested on: SNB-75 CNS
[48] = tested on: SW-620 colon
[49] = tested on: T-47D breast
[50] = tested on: TK-10 renal
[51] = tested on: U251 CNS
[52] = tested on: UACC-257 melanoma
[53] = tested on: UACC-62 melanoma
[54] = tested on: UO-31 renal

For `O=S(=O)(NCCCNc1nccc(-c2[nH]c(-c3ccccc3)nc2-c2ccc(F)c(O)c2)n1)c1ccc(C(F)(F)F)cc1`, the GI50 [1] was 3.52 µM, the TGI [1] was 11.7 µM and the GI50 [2] was 2.68 µM. The TGI [2] was 7.38 µM, the GI50 [3] was 3.04 µM and the TGI [3] was 12.4 µM. It also gave a GI50 [4] of 2.85 µM, a TGI [4] of 8.78 µM and a GI50 [5] of 2.53 µM. The TGI [5] was 7.12 µM, the GI50 [6] was 2.57 µM and the TGI [6] was 13.8 µM. The GI50 [7] was 3.46 µM, the TGI [7] was greater than 100 µM and the GI50 [8] was 3.06 µM. It also gave a TGI [8] of 9.77 µM, a GI50 [9] of 3.06 µM and a TGI [9] of 11.5 µM. The GI50 [10] was 3.61 µM, the TGI [10] was 16 µM and the GI50 [11] was 2.8 µM. It also gave a TGI [11] of 6.53 µM, a GI50 [12] of 2.18 µM and a TGI [12] of 5.11 µM. The GI50 [13] was 3.04 µM, the TGI [13] was 9.62 µM and the GI50 [14] was 2.89 µM. For the same compound, the TGI [14] was 10.9 µM, the GI50 [15] was 2.15 µM and the TGI [15] was 9.16 µM. It also gave a GI50 [16] of 2.71 µM, a TGI [16] of 7.12 µM and a GI50 [17] of 2.96 µM. The GI50 [18] was 2.41 µM, the TGI [18] was 6.72 µM and the GI50 [19] was 2.87 µM. It also gave a TGI [19] greater than 100 µM, a GI50 [20] of 3.05 µM and a TGI [20] of 9.09 µM. It also gave a GI50 [21] of 2.01 µM, a TGI [21] of 4.78 µM and a GI50 [22] of 1.46 µM. The TGI [22] was 4.09 µM, the GI50 [23] was 1.21 µM and the TGI [23] was 3.47 µM. It also gave a GI50 [24] of 2.82 µM, a TGI [24] of 10.4 µM and a GI50 [25] of 2.75 µM. It also gave a TGI [25] of 8.44 µM, a GI50 [26] of 1.59 µM and a TGI [26] of 3.7 µM. It also gave a GI50 [27] of 3.02 µM, a TGI [27] greater than 100 µM and a GI50 [28] of 3.85 µM. The TGI [28] was 16.7 µM, the GI50 [29] was 2.26 µM and the TGI [29] was 5.07 µM. It also gave a GI50 [30] of 2.42 µM, a TGI [30] of 7.12 µM and a GI50 [31] of 3.88 µM. It also gave a TGI [31] of 18.9 µM, a GI50 [32] of 2.62 µM and a TGI [32] of 5.49 µM. The GI50 [33] was 3.62 µM, the TGI [33] was 24.1 µM and the GI50 [34] was 3.12 µM. For the same compound, the TGI [34] was 9.26 µM, the GI50 [35] was 3.37 µM and the TGI [35] was greater than 100 µM. It also gave a GI50 [36] of 3.08 µM, a TGI [36] greater than 100 µM and a GI50 [37] of 2.49 µM. For the same compound, the TGI [37] was 7.05 µM, the GI50 [38] was 2.3 µM and the TGI [38] was 5 µM. For the same compound, the GI50 [39] was 2.55 µM, the TGI [39] was 7.25 µM and the GI50 [40] was 1.88 µM. It also gave a TGI [40] of 3.58 µM, a GI50 [41] of 2 µM and a TGI [41] of 3.85 µM. For the same compound, the GI50 [42] was 1.61 µM, the TGI [42] was 4.46 µM and the GI50 [43] was 1.69 µM. For the same compound, the TGI [43] was 3.23 µM, the GI50 [44] was 3.46 µM and the TGI [44] was 18.8 µM. The GI50 [45] was 2.59 µM, the TGI [45] was 7.62 µM and the GI50 [46] was 3.51 µM. For the same compound, the TGI [46] was 11.1 µM, the GI50 [47] was 2.22 µM and the TGI [47] was 7.79 µM. The GI50 [48] was 4.09 µM, the TGI [48] was 15 µM and the GI50 [49] was 2.56 µM. The TGI [49] was 22 µM, the GI50 [50] was 3.79 µM and the TGI [50] was 28.1 µM. It also gave a GI50 [51] of 3.15 µM, a TGI [51] of 9.85 µM and a GI50 [52] of 2.48 µM. For the same compound, the TGI [52] was 7.33 µM, the GI50 [53] was 1.29 µM and the TGI [53] was 2.82 µM. It also gave a GI50 [54] of 2.69 µM and a TGI [54] of 7.17 µM.
